Measured values published in patent publication US12162872B2, “Cycloalkylurea derivative” (Sumitomo Pharma Co., Ltd., priority 2019, dated 2024).

target: T1, Human orexin receptor type 2 (Homo sapiens, UniProt O43614); assay: Test 1: Evaluation of agonist activity for orexin receptor type 2 (aequorin luminescence, intracellular calcium mobilization in CHO cells); format: cell-based; settings: relative percentage of luminescence for the luminescence (100%) of Orexin A (100 pM); CHO cells transiently expressing human orexin receptor type 2 and apoaequorin; Orexin A Lot. 641114
T1 construct: expressed in transfected cells; host or cells: CHO cells (transient expression)
T1 sequence (O43614 1-444): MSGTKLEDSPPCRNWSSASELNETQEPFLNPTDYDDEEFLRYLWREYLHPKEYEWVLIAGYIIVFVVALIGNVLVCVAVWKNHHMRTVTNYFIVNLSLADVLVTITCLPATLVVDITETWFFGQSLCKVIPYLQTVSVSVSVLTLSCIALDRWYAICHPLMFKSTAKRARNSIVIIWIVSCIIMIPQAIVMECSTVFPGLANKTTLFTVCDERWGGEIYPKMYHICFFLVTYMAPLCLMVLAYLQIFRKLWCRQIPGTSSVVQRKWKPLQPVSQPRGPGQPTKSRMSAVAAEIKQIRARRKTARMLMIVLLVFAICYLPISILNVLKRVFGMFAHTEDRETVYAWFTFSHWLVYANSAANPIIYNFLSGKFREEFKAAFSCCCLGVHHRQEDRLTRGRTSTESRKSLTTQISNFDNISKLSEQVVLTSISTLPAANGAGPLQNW
Method: Test 1: Evaluation of Agonist Activity for Orexin Receptor Type 2
Human orexin receptor type 2 and apoaequorin were transiently expressed in CHO cells, and the agonist activity was evaluated based on intracellular calcium mobilization with ligand stimulation. The CHO cells transiently-expressed human orexin receptor type 2 and apoaequorin were seeded on a 384-well plate by 2,000 cells/well, and then incubated for 16-22 hours. After the plate was returned to room temperature, Coelenterazine hcp (final concentration: 1 μM) was added to the plate, and the plate was allowed to stand at room temperature for 2 hours. And then, Orexin A (PEPTIDE INSTITUTE, INC., Lot. 641114) or each test compound was added to the plate, and the luminescence of the cells was measured with FDSS7000 (Hamamatsu Photonics K.K.), wherein Orexin A and each test compound were dissolved in DMSO (final concentration: 0.1%), and diluted with a buffer (Hanks, 20 mM HEPES, 0.1% BSA). The agonist activity of each test compound for orexin receptor type 2 was calculated as relative percentage of luminescence for the luminescence (100%) of Orexin A (100 pM).

Going from `CCN1CCN([C@H]2CCCC[C@H]2NC(=O)N2CCC(c3ccc(C)cc3)CC2)CC1` (racemic) [Example 2, rac-N-[(1R,2S)-2-(4-ethylpiperazin-1-yl)cyclohexyl]-4-(4-methylphenyl)piperidine-1-carboxamide] to `Cc1ccc(C2CCN(C(=O)N[C@H]3CCC[C@@H]3N3CCN(C(C)C)CC3)CC2)cc1` (racemic) [Example 5, rac-4-(4-methylphenyl)-N-{(1S,2S)-2-[4-(propan-2-yl)piperazin-1-yl]cyclopentyl}piperidine-1-carboxamide], the “agonist activity (%)” value rises from 58% to 103%.

First: CC(C)N1CCN([C@H]2CCCC(F)(F)[C@@H]2NC(=O)N2CCC(C)(c3nsc(C4CC4)n3)CC2)CC1 (racemic) [Example 31, rac-4-(5-cyclopropyl-1,2,4-thiadiazol-3-yl)-N-{(1R,6S)-2,2-difluoro-6-[4-(propan-2-yl)piperazin-1-yl]cyclohexyl}-4-methylpiperidine-1-carboxamide]
Second: CC(C)N1CCN([C@H]2CCCC(F)(F)[C@@H]2NC(=O)N2CCC(C)(c3ncn(C4CC4)n3)CC2)CC1 (racemic) [Example 29, rac-4-(1-cyclopropyl-?H-1,2,4-triazol-3-yl)-N-{(1R,6S)-2,2-difluoro-6-[4-(propan-2-yl)piperazin-1-yl]cyclohexyl}-4-methylpiperidine-1-carboxamide]
The “agonist activity (%)” value of the first is higher: 168% for the first, 109% for the second.

Going from `CC(C)N1CCN([C@H]2CCCC(F)(F)[C@@H]2OC(=O)N2CCC(C)(c3noc(C4CC4)n3)CC2)CC1` [Example 14, (1R,6S)-2,2-difluoro-6-[4-(propan-2-yl)piperazin-1-yl]cyclohexyl 4-(5-cyclopropyl-1,2,4-oxadiazol-3-yl)-4-methylpiperidine-1-carboxylate] to `CC(C)N1CCN([C@H]2CCCC(F)(F)[C@@H]2OC(=O)N2CCC(C)(c3cc(C4CC4)on3)CC2)CC1` (racemic) [Example 11, rac-(1R,6S)-2,2-difluoro-6-[4-(propan-2-yl)piperazin-1-yl]cyclohexyl 4-(5-cyclopropyl-1,2-oxazol-3-yl)-4-methylpiperidine-1-carboxylate], the “agonist activity (%)” value rises from 178% to 211%.

Going from `Cc1ccc(C2(C)CCN(C(=O)N[C@@H]3[C@@H](O[C@@H]4CCN(C(C)C)C4)CCCC3(F)F)CC2)cc1` [Example 67, N-[(1R,6S)-2,2-difluoro-6-{[(3R)-1-(propan-2-yl)pyrrolidin-3-yl]oxy}cyclohexyl]-4-methyl-4-(4-methylphenyl)piperidine-1-carboxamide] to `CC(C)N1CCN([C@H]2CCCC(F)(F)[C@@H]2NC(=O)N2CCC(C)(c3noc([C@@H]4C[C@@H]4C)n3)CC2)CC1` [Example 69, N-{(1R,6S)-2,2-difluoro-6-[4-(propan-2-yl)piperazin-1-yl]cyclohexyl}-4-methyl-4-{5-[(1R,2S)-2-methylcyclopropyl]-1,2,4-oxadiazol-3-yl}piperidine-1-carboxamide], the “agonist activity (%)” value falls from 175% to 161%.

In the case of `CC(C)N1CCN([C@H]2[C@H](NC(=O)N3CCC(C)(c4noc(C5CC5)n4)CC3)CCCC2(F)F)CC1` (racemic) [Example 7, rac-4-(5-cyclopropyl-1,2,4-oxadiazol-3-yl)-N-{(1R,2S)-3,3-difluoro-2-[4-(propan-2-yl)piperazin-1-yl]cyclohexyl}-4-methylpiperidine-1-carboxamide], the “agonist activity (%)” value is reported as 75%.

target: T1, Human orexin receptor type 2; assay: Test 2: Evaluation of agonist activity for orexin receptor type 2 (aequorin luminescence, intracellular calcium mobilization in CHO cells); format: cell-based; settings: relative percentage of luminescence for the luminescence (100%) of Orexin A (100 pM); CHO cells transiently expressing human orexin receptor type 2 and apoaequorin; Orexin A Lot. 671009
Summary of the method: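 CHO cells transiently co-expressing the receptor and apoaequorin, incubated 16–22 h, were loaded 2 h at room temperature with 1 μM coelenterazine hcp (final). Compounds in Hanks/20 mM HEPES/0.1% BSA (0.1% DMSO final) were added and the calcium luminescence was read and expressed as % of Orexin A (100 pM).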

For `CC(C)N1CC2CN([C@H]3CCCC(F)(F)[C@@H]3NC(=O)N3CCC(C)(c4noc([C@@H]5C[C@@H]5F)n4)CC3)CC2C1` (stereo partly drawn) [Example 125, N-{(1R,6S)-2,2-difluoro-6-[5-(propan-2-yl)hexahydropyrrolo[3,4-c]pyrrol-2(1H)-yl]cyclohexyl}-4-{5-[(1S,2S)-2-fluorocyclopropyl]-1,2,4-oxadiazol-3-yl}-4-methylpiperidine-1-carboxamide], the “agonist activity (%)” value was 402%.
